# Counter-ions that a name gives are not always drawn. Like-named read-outs stand apart in the source and are kept apart here.
# Columns and labels:
# [1] = test system: allergen-induced degranulation of peripheral leukocytes; experiment: Inhibition of the allergen-induced degranulation reaction of peripheral leukocytes (method of Siraganian and Hook); assay type: cell-based; conditions: Homo sapiens, Leukocyte
# Experimental: For the detection of the anti-allergic action, there was measured the inhibition of the allergen-induced degranulation reaction of peripheral leukocytes; one operated according to the method of R. P. Siraganian and W. A. Hook (Manual of Clinical Immunology, 2nd edition 1980, pub. N. R. Rose and H. Friedman, Am. Soc. for Microbiology, pages 808 to 821).
# [2] = test system: gram-positive and gram-negative bacteria, pathogenic fungi and protozoa; conditions: Celmer and Solomons, J. Am. Chem. Soc. 77 (1955) 2861; cited from earlier work
# mouse [3] = experiment: Toxicity LD50 p.o., mouse; assay type: in vivo; conditions: thiolutin vs theophylline
# mouse [4] = conditions: p.o., Table I, for the toxicity cf. literature named; cited from earlier work
# [5] = Table I, 50% inhibition in vitro, read-out: ID50 (the source's name)
smiles,measurement,setting,value
"CN(C)c1c2sscc-2n(C)c1=O [Example 4, N,N-Dimethylpyrrothine]",IC50,[1]; [5],4.6 µM
"Cn1c(=O)c2[nH]cnc2n(C)c1=O [theophylline, reference compound]",IC50,[1]; [5],5000 µM
"Cn1c2cssc-2c(N)c1=O [pyrrothine, 4-methyl-6-amino-1,2-dithiolo[4,3-b]pyrrol-5(4H)-one]",IC50,[1]; [5],0.9 µM
"CC(=O)NC1=C(S)C(=CS)N(C)C1=O [Example 3, 3-Acetamido-4-mercapto-5-mercaptomethylene-1-methylpyrrolin-2-one disodium salt]",IC50,[1]; [5],2.5 µM
CC(C)C(=O)Nc1c2sscc-2n(C)c1=O [isobutyrylpyrrothine],IC50,[1]; [5],1.7 µM
"CN(C)C1=C(S)C(=CS)N(C)C1=O [Example 5, 3-Dimethylamino-4-mercapto-5-mercaptomethylene-1-methylpyrrolin-2-one disodium salt]",IC50,"[1]; Examples 3 to 5, no unit printed at the value, read-out: ID50 (the source's name)",50 µM
same,IC50,[1]; [5],5 µM
CCC(=O)Nc1c2sscc-2n(C)c1=O [aureothricin],"antibiotic action, in words",[2],"action against gram-positive and gram-negative bacteria, pathogenic fungi and protozoa"
same,IC50,[1]; read-out: ID50 (the source's name),0.9 µM
CC(=O)Nc1c2sscc-2n(C)c1=O [thiolutin],factor of therapeutic index against comparison compound theophylline,mouse [3],more than 10^4
same,LD50,mouse [4],25 mg/kg
same,"antibiotic action, in words",[2],"action against gram-positive and gram-negative bacteria, pathogenic fungi and protozoa"
same,IC50,[1]; read-out: ID50,0.4 µM
